Results published in the supplement of paper PMC10307832.

Legend:
Assay in all cases: relative viability (nuclei count vs DMSO), 5 days (fraction); higher = more cells survive
VE-821 + OSI-027 = compound: CS(=O)(=O)c1ccc(-c2cnc(N)c(C(=O)Nc3ccccc3)n2)cc1 [VE-821] + COc1cccc2cc(-c3nc([C@H]4CC[C@H](C(=O)O)CC4)n4ncnc(N)c34)[nH]c12 [OSI-027] (partner 0.5 µM)
Procedure, shortened: (§1)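 Relative viability divides the nuclei count in treated wells by that in vehicle wells. Lung cancer cell lines were seeded in 1536-well plates, dosed by pin tool the next day, and fixed and stained after 5 days in one step with final 0.05% Triton X-100, 1% formaldehyde and 1 ug/ml Hoechst. Dosing was a single drug or a fixed anchor-drug dose plus five library-drug doses (not always all listed) in √10 steps, and values are medians of duplicate plates imaged at 4×.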

VE-821 + Decitabine = compound: CS(=O)(=O)c1ccc(-c2cnc(N)c(C(=O)Nc3ccccc3)n2)cc1 [VE-821] + Nc1ncn([C@H]2C[C@H](O)[C@@H](CO)O2)c(=O)n1 [Decitabine] (partner 2 µM)
Procedure, shortened: as §1

Vismodegib + Decitabine = compound: CS(=O)(=O)c1ccc(C(=O)Nc2ccc(Cl)c(-c3ccccn3)c2)c(Cl)c1 [Vismodegib] + Nc1ncn([C@H]2C[C@H](O)[C@@H](CO)O2)c(=O)n1 [Decitabine] (partner 2 µM)
Procedure, shortened: as §1

Ruxolitinib + Foretinib = compound: N#CC[C@H](C1CCCC1)n1cc(-c2ncnc3[nH]ccc23)cn1 [Ruxolitinib] + COc1cc2c(Oc3ccc(NC(=O)C4(C(=O)Nc5ccc(F)cc5)CC4)cc3F)ccnc2cc1OCCCN1CCOCC1 [Foretinib] (partner 0.25 µM)
Procedure, shortened: as §1

| Cell Line | relative viability (VE-821 + OSI-027; first compound 0.08 µM) | relative viability (VE-821 + OSI-027; first compound 0.253 µM) | relative viability (VE-821 + OSI-027; first compound 0.8 µM) | relative viability (VE-821 + OSI-027; first compound 2.53 µM) | relative viability (VE-821 + OSI-027; first compound 8 µM) | relative viability (VE-821 + Decitabine; first compound 0.08 µM) | relative viability (VE-821 + Decitabine; first compound 0.253 µM) | relative viability (VE-821 + Decitabine; first compound 0.8 µM) | relative viability (VE-821 + Decitabine; first compound 2.53 µM) | relative viability (VE-821 + Decitabine; first compound 8 µM) | relative viability (Vismodegib + Decitabine; first compound 0.08 µM) | relative viability (Vismodegib + Decitabine; first compound 0.253 µM) | relative viability (Vismodegib + Decitabine; first compound 0.8 µM) | relative viability (Vismodegib + Decitabine; first compound 2.53 µM) | relative viability (Vismodegib + Decitabine; first compound 8 µM) | relative viability (Ruxolitinib + Foretinib; first compound 0.08 µM) | relative viability (Ruxolitinib + Foretinib; first compound 0.8 µM) | relative viability (Ruxolitinib + Foretinib; first compound 2.53 µM) | relative viability (Ruxolitinib + Foretinib; first compound 8 µM) | relative viability (Ruxolitinib + Foretinib; first compound 0.253 µM) |
| --- | --- | --- | --- | --- | --- | --- | --- | --- | --- | --- | --- | --- | --- | --- | --- | --- | --- | --- | --- | --- |
| 201T | 0.815 | 0.672 | 0.688 | 0.747 | 0.381 | 0.887 | 0.878 | 0.887 | 0.918 | 0.659 | 0.826 | 0.813 | 0.869 | 0.848 | 0.846 | 1.11 | 1.43 | 1.1 | 1.26 |  |
| A549 |  |  |  |  |  | 0.319 | 0.454 | 0.221 | 0.318 | 0.281 | 0.268 | 0.228 |  | 0.263 | 0.205 | 0.926 | 1.08 | 0.834 | 0.632 | 0.926 |
| A-427 | 0.514 | 0.418 | 0.391 | 0.412 | 0.286 | 0.592 | 0.53 | 0.587 | 0.572 | 0.442 | 0.515 | 0.569 | 0.546 | 0.499 | 0.582 | 0.992 | 1.06 | 0.918 | 0.988 | 1.1 |
| ABC-1 | 0.53 | 0.485 | 0.485 | 0.475 | 0.381 | 1.13 | 0.974 | 0.809 | 0.903 | 0.989 | 1.06 | 1.01 | 0.999 | 1.2 | 1.01 |  | 1.33 | 0.975 | 0.99 | 1.35 |
| BEN | 0.279 | 0.297 | 0.332 | 0.277 | 0.316 | 0.699 | 0.679 | 0.687 | 0.768 | 0.644 | 0.684 | 0.691 | 0.648 | 0.697 | 0.782 | 0.773 | 0.729 | 0.62 | 0.612 | 0.634 |
| CAL-12T | 0.529 | 0.612 | 0.489 | 0.423 | 0.483 |  |  |  |  |  |  |  |  |  |  | 1.19 | 1.17 | 0.899 | 0.777 | 1.15 |
| COR-L23 | 0.9 | 0.751 | 0.797 | 0.766 | 0.63 | 0.538 | 0.459 | 0.599 | 0.58 | 0.468 | 0.413 | 0.429 | 0.505 | 0.441 | 0.41 | 0.944 | 1.07 | 1 | 0.772 | 0.988 |
| COR-L 105 | 0.741 | 0.551 | 0.647 | 0.642 | 0.695 | 0.666 | 0.579 | 0.58 | 0.613 | 0.518 | 0.589 | 0.593 | 0.676 | 0.708 | 0.627 | 0.927 | 0.994 | 0.718 | 0.853 | 1.17 |
| Calu-6 |  |  |  |  |  |  |  |  |  |  |  |  |  |  |  | 0.936 | 0.99 | 0.81 | 0.523 | 0.884 |
| ChaGo-K-1 | 0.624 | 0.475 | 0.669 | 0.649 | 0.419 | 0.55 | 0.493 | 0.506 | 0.537 | 0.559 | 0.503 | 0.508 | 0.504 | 0.505 | 0.561 | 0.956 | 0.898 | 0.772 | 0.823 | 0.934 |
| EBC-1 |  |  |  |  |  |  |  |  |  |  |  |  |  |  |  | 0.0875 | 0.116 | 0.115 | 0.0903 | 0.0905 |
| EKVX | 0.696 | 0.675 | 0.676 | 0.745 | 0.605 | 0.406 | 0.366 | 0.322 | 0.327 | 0.38 |  | 0.383 | 0.327 | 0.297 | 0.336 | 0.234 | 0.768 | 0.795 | 0.311 | 0.698 |
| EMC-BAC-2 | 0.398 | 0.319 | 0.372 | 0.388 | 0.346 | 1.07 | 0.961 | 0.996 | 0.969 | 0.826 | 1 | 0.926 | 0.964 | 0.9 | 1.04 | 1.06 | 1.03 | 0.819 | 0.824 | 0.951 |
| EPLC-272H | 0.286 | 0.268 | 0.296 | 0.333 | 0.21 | 0.395 | 0.359 | 0.404 | 0.408 | 0.345 | 0.375 | 0.358 | 0.358 | 0.362 | 0.341 | 0.645 | 0.79 | 0.573 | 0.472 | 0.635 |
| H3255 | 0.603 | 0.584 | 0.637 | 0.606 | 0.566 | 0.655 | 0.551 | 0.614 | 0.752 | 0.596 | 0.569 | 0.567 | 0.578 | 0.604 | 0.562 | 0.747 | 0.968 | 0.95 | 0.836 | 0.91 |
| HARA | 0.75 | 0.434 | 0.497 | 0.76 | 0.392 | 0.551 | 0.636 | 0.613 | 0.615 | 0.516 | 0.553 |  | 0.514 | 0.509 | 0.55 | 0.882 | 1.05 | 0.879 | 0.806 | 0.851 |
| HCC-15 | 0.835 | 0.689 | 0.692 | 0.855 | 0.682 | 0.74 | 0.726 | 0.69 | 0.954 | 0.766 | 0.635 | 0.659 | 0.687 | 0.668 | 0.576 | 1.04 | 1.1 | 0.926 | 0.771 | 0.995 |
| HCC-44 | 0.498 | 0.427 | 0.634 | 0.563 | 0.556 | 0.9 | 0.963 | 1.05 | 1.04 | 1.04 | 0.945 | 0.942 | 0.93 | 0.937 | 1.04 |  |  |  |  |  |
| HCC-78 | 0.385 | 0.349 | 0.372 | 0.401 | 0.326 | 0.619 | 0.597 | 0.719 | 0.785 | 0.699 | 0.561 | 0.736 | 0.661 | 0.698 | 0.786 | 0.501 | 0.599 | 0.554 | 0.515 | 0.568 |
